Measurements taken from patent US7704995B2 (Exelixis, Inc., priority 2003, dated 2010).
Like-named read-outs stand apart in the source and are kept apart here. Each block holds one molecule with its values, some of them ahead of it.

Target: T1, Chk1 (Homo sapiens, UniProt O14757)
T1 construct: purchased Upstate Biotechnology
T1 sequence (O14757 1-476): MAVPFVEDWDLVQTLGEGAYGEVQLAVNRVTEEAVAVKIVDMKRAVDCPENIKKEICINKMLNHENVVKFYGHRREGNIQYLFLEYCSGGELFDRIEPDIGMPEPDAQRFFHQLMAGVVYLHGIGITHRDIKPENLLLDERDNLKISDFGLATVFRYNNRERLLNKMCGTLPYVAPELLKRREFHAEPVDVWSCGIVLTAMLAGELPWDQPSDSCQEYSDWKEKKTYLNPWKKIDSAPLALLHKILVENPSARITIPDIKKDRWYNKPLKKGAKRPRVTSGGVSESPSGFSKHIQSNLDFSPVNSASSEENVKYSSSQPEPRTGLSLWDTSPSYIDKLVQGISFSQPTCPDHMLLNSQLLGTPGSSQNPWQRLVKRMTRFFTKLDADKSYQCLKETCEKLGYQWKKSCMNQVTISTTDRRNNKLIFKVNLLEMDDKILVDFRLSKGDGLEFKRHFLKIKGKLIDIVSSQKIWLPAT
Test: Chk1 kinase assay: incorporation of γ-33P ATP into immobilized myelin basic protein
Assay type: biochemical
Conditions: read-out: Chk1 IC50
Experimental: Chk1 and Chk2 assays were performed by measuring incorporation of γ-^33P ATP into immobilized myelin basic protein (MBP). High binding white 384 well plates (Greiner) were coated with MBP (Sigma #M-1891) by incubation of 60 ul/well of 20 μg/ml MBP in Tris-buffered saline (TBS; 50 mM Tris pH 8.0, 138 mM NaCl, 2.7 mM KCl) for 24 hours at 4° C. Plates were washed 3× with 100 μl TBS. Kinase reactions were carried out in a total volume of 34 μl in kinase buffer (5 mM Hepes pH 7.6, 15 mM NaCl, 0.01% bovine gamma globulin (Sigma #I-5506), 10 mM MgCl2, 1 mM DTT, 0.02% TritonX-100). Compound dilutions were performed in DMSO and added to assay wells to a final DMSO concentration of 1%. Each data point was measured in duplicate, and at least two duplicate assays were performed for each individual compound determination. Chk1 and Chk2 enzymes (Upstate Biotechnology) were added to final concentrations of 10 nM (Chk1) or 20 nM (Chk2). A mixture of unlabeled ATP and γ-^33P ATP was added to start the reaction (2×10^6 cpm of γ-^33P ATP per well (3000 Ci/mmole) and either 10 μM or 30 μM unlabeled ATP (for Chk1 and Chk2 assays respectively). The reaction was carried out for 1 hour at room temperature with shaking. Plates were washed 7× with TBS, followed by the addition of 50 μl/well scintillation fluid (Wallac). Plates were read using a Wallac Trilux counter. This is only one format of such assays, various other formats are possible, as known to those skilled in the art.
The above assay procedure can be used to determine the IC50 for inhibition and/or the inhibition constant Ki. The IC50 is defined as the concentration of compound required to reduce the enzyme activity by 50% under the conditions of the assay. […] The Ki for a compound may be determined from the IC50 based on three assumptions. First, only one compound molecule binds to the enzyme and there is no cooperativity. […] Third, the enzymatic rate of the enzyme-inhibitor complex is zero. The rate (i.e., compound concentration) data are fitted to the equation: […]

[1] = Table 11, Chk1 only, class symbols A-D

IC50 (Table 11, Chk1 only): ≥ 10 µM
SMILES: CN1CCN(NC(=N)c2nc(-c3cccc(C(=O)NCc4ccccc4)c3)cnc2N)CC1 [Example 621, 3-(5-amino-6-{imino[(4-methylpiperazin-1-yl)amino]methyl}pyrazin-2-yl)-N-(phenylmethyl)benzamide]

IC50 (Table 11, Chk1 only): 0.05 to 1 µM
SMILES: Nc1ncc(-c2cccc(C(=O)NCc3c(F)cccc3Cl)c2)nc1C(=O)N[C@H]1CCNC1 [Example 746, 3-amino-6-[3-({[(2-chloro-6-fluorophenyl)methyl]amino}carbonyl)phenyl]-N-[(3S)-pyrrolidin-3-yl]pyrazine-2-carboxamide]

IC50: 1 to 10 µM
SMILES: CNC(=O)c1nc(-c2cccc(C(=O)NCCc3cc(OC)cc(OC)c3)c2)cnc1N [Example 173, 3-amino-6-{3-[({2-[3,5-bis(methyloxy)phenyl]ethyl}amino)carbonyl]phenyl}-N-methylpyrazine-2-carboxamide]

IC50: 0.05 to 1 µM
SMILES: CNC(=O)c1nc(-c2cccc(CS(=O)(=O)Cc3ccccc3)c2)cnc1N [Example 313, 3-amino-N-methyl-6-(3-{[(phenylmethyl)sulfonyl]methyl}phenyl)pyrazine-2-carboxamide]

IC50 (Table 11, Chk1 only): 1 to 10 µM
SMILES: Nc1ncc(-c2cccc(C(=O)N[C@H]3CCc4ccccc43)c2)nc1-c1n[nH]c(CCOCc2ccccc2)n1 [Example 771, 3-[5-amino-6-(5-{2-[(phenylmethyl)oxy]ethyl}-1H-1,2,4-triazol-3-yl)pyrazin-2-yl]-N-[(1S)-2,3-dihydro-1H-inden-1-yl]benzamide]

IC50 (Table 11, Chk1 only): 1 to 10 µM
SMILES: N=C(NN1CCCCCC1)c1nc(-c2cccc(C(=O)NCc3ccccc3)c2)cnc1N [Example 623, 3-{5-amino-6-[(azepan-1-ylamino)(imino)methyl]pyrazin-2-yl}-N-(phenylmethyl)benzamide]

IC50 [1]: < 0.05 µM
SMILES: Nc1ncc(-c2cccc(CNS(=O)(=O)c3ccc4c(c3)OCCCO4)c2)nc1C(=O)N[C@H]1CCCNC1 [Example 906, 3-amino-6-(3-{[(3,4-dihydro-2H-1,5-benzodioxepin-7-ylsulfonyl)amino]methyl}phenyl)-N-[(3S)-piperidin-3-yl]pyrazine-2-carboxamide]

IC50: 0.05 to 1 µM
SMILES: CNC(=O)c1nc(-c2ccc(C(=O)N[C@H]3CCc4ccccc43)cc2)cnc1N [Example 154, 3-amino-6-(4-{[(1S)-2,3-dihydro-1H-inden-1-ylamino]carbonyl}phenyl)-N-methylpyrazine-2-carboxamide]

IC50 [1]: < 0.05 µM
SMILES: Nc1ncc(-c2cccc(NC(=O)Cc3ccc(Cl)cc3)c2)nc1C(=O)N[C@H]1CCCNC1 [Example 885, 3-amino-6-(3-{[(4-chlorophenyl)acetyl]amino}phenyl)-N-[(3S)-piperidin-3-yl]pyrazine-2-carboxamide]

IC50 (Table 11, Chk1 only): ≥ 10 µM
SMILES: COC(=O)[C@@H](NC(=O)c1nc(-c2cccc(C(=O)NCc3ccccc3)c2)cnc1N)[C@@H](C)O [Example 697, methyl N-{[3-amino-6-(3-{[(phenylmethyl)amino]carbonyl}phenyl)pyrazin-2-yl]carbonyl}threoninate]

IC50 (Table 11, Chk1 only): 0.05 to 1 µM
SMILES: CNC(=O)c1nc(-c2cccc(CNC(CN3CCCC3)c3ccccc3)c2)cnc1N (stereo not drawn) [Example 518, 3-amino-N-methyl-6-(3-{[(1-phenyl-2-pyrrolidin-1-ylethyl)amino]methyl}phenyl)pyrazine-2-carboxamide]

IC50: 1 to 10 µM
SMILES: CC[C@@H](NC(=O)c1cccc(-c2cnc(N)c(C(=O)NC)n2)c1)c1ccccc1 [Example 146, 3-amino-N-methyl-6-[3-({[(1R)-1-phenylpropyl]amino}carbonyl)phenyl]pyrazine-2-carboxamide]

IC50: 0.05 to 1 µM
SMILES: CNC(=O)c1nc(-c2cccc(C(=O)NCc3cccc(Cl)c3Cl)c2)cnc1N [Example 274, 3-amino-6-[3-({[(2,3-dichlorophenyl)methyl]amino}carbonyl)phenyl]-N-methylpyrazine-2-carboxamide]

IC50 [1]: < 0.05 µM
SMILES: Nc1ncc(-c2cccc(NC(=O)Cc3ccc(Cl)cc3Cl)c2)nc1C(=O)N[C@H]1CCCNC1 [Example 890, 3-amino-6-(3-{[(2,4-dichlorophenyl)acetyl]amino}phenyl)-N-[(3S)-piperidin-3-yl]pyrazine-2-carboxamide]

IC50 (Table 11, Chk1 only): 0.05 to 1 µM
SMILES: CCn1nc(-c2nc(-c3cccc(C(=O)N[C@@H]4CCc5ccccc54)c3)cnc2N)nc1C1CCCNC1 (stereo partly drawn) [Example 734, 3-[5-amino-6-(1-ethyl-5-piperidin-3-yl-1H-1,2,4-triazol-3-yl)pyrazin-2-yl]-N-[(1R)-2,3-dihydro-1H-inden-1-yl]benzamide]

IC50 (Table 11, Chk1 only): 0.05 to 1 µM
SMILES: COc1ccc(CNC(=O)c2cccc(-c3cnc(N)c(C(=O)N[C@H]4CCN(C(=O)OC(C)(C)C)C4)n3)c2)cc1 [Example 738, 1,1-dimethylethyl (3S)-3-{[(3-amino-6-{3-[({[4-(methyloxy)phenyl]methyl}amino)carbonyl]phenyl}pyrazin-2-yl)carbonyl]amino}pyrrolidine-1-carboxylate]

IC50: 1 to 10 µM
SMILES: CNC(=O)c1nc(-c2cccc(C(=O)NC3CC3)c2)cnc1N [Example 278, 3-amino-6-{3-[(cyclopropylamino)carbonyl]phenyl}-N-methylpyrazine-2-carboxamide]

IC50: 0.05 to 1 µM
SMILES: CNC(=O)c1nc(-c2cccc(C(=O)NCc3ccc(Br)cc3F)c2)cnc1N [Example 260, 3-amino-6-[3-({[(4-bromo-2-fluorophenyl)methyl]amino}carbonyl)phenyl]-N-methylpyrazine-2-carboxamide]

IC50 (Table 11, Chk1 only): ≥ 10 µM
SMILES: Nc1ncc(-c2cccc(C(=O)NCc3ccccc3)c2)nc1C(=O)N1CCCC(C(=O)O)C1 (stereo not drawn) [Example 614, 1-{[3-amino-6-(3-{[(phenylmethyl)amino]carbonyl}phenyl)pyrazin-2-yl]carbonyl}piperidine-3-carboxylic]

IC50 (Table 11, Chk1 only): 0.05 to 1 µM
SMILES: CNC(=O)c1nc(-c2cccc(CNC3CCc4cc(-c5ccccc5)ccc43)c2)cnc1N (stereo not drawn) [Example 491, 3-amino-N-methyl-6-(3-{[(5-phenyl-2,3-dihydro-1H-inden-1-yl)amino]methyl}phenyl)pyrazine-2-carboxamide]

IC50 [1]: < 0.05 µM
SMILES: Nc1ncc(-c2cccc(C(=O)NCc3ccc(F)c(Cl)c3)c2)nc1C(=O)N[C@H]1CCCCNC1 [Example 1023, 3-amino-N-[(3S)-azepan-3-yl]-6-[3-({[(3-chloro-4-fluorophenyl)methyl]amino}carbonyl)phenyl]pyrazine-2-carboxamide]

IC50 (Table 11, Chk1 only): 0.05 to 1 µM
SMILES: CNC(=O)c1nc(-c2cccc(CN[C@@H]3CCN(Cc4ccccc4)C3)c2)cnc1N [Example 438, 3-amino-N-methyl-6-[3-({[(3R)-1-(phenylmethyl)pyrrolidin-3-yl]amino}methyl)phenyl]pyrazine-2-carboxamide]

IC50 [1]: < 0.05 µM
SMILES: Cc1cc(Br)cc(NC(=O)NCc2cccc(-c3cnc(N)c(C(=O)N[C@H]4CCCNC4)n3)c2)c1 [Example 921, 3-amino-6-{3-[({[(3-bromo-5-methylphenyl)amino]carbonyl}amino)methyl]phenyl}-N-[(3S)-piperidin-3-yl]pyrazine-2-carboxamide]

IC50: 0.05 to 1 µM
SMILES: CNC(=O)c1nc(-c2cccc(C(=O)NCc3cccc(OC)c3)c2)cnc1N [Example 107, 3-amino-N-methyl-6-{3-[({[3-(methyloxy)phenyl]methyl}amino)carbonyl]phenyl}pyrazine-2-carboxamide]

IC50 (Table 11, Chk1 only): 0.05 to 1 µM
SMILES: CC(C)(C)OC(=O)N1CCC[C@H](NC(=O)c2nc(-c3cccc(C(=O)N[C@H]4CCc5ccccc54)c3)cnc2N)C1 [Example 776, 1,1-dimethylethyl (3S)-3-({[3-amino-6-(3-{[(1S)-2,3-dihydro-1H-inden-1-ylamino]carbonyl}phenyl)pyrazin-2-yl]carbonyl}amino)piperidine-1-carboxylate]

IC50 [1]: < 0.05 µM
SMILES: Nc1ncc(-c2cccc(NC(=O)Cc3cccc(F)c3)c2)nc1C(=O)N[C@H]1CCCNC1 [Example 979, 3-amino-6-(3-{[(3-fluorophenyl)acetyl]amino}phenyl)-N-[(3S)-piperidin-3-yl]pyrazine-2-carboxamide]

IC50 [1]: < 0.05 µM
SMILES: Cc1ccc(F)cc1CNC(=O)c1cccc(-c2cnc(N)c(C(=O)N[C@H]3CCCNC3)n2)c1 [Example 1031, 3-amino-6-[3-({[(5-fluoro-2-methylphenyl)methyl]amino}carbonyl)phenyl]-N-[(3S)-piperidin-3-yl]pyrazine-2-carboxamide]
